Entries after “also recorded” stand apart in the source; their conditions may differ. Where two headings read alike, the source gives them in different places. One block for each compound: values may come before it.
Columns and labels:
[1] = tested on: MDA-MB-231 cells with low (scrambled shRNA) vs elevated (V1E1 shRNA) lysosomal pH; test: intracellular distribution-based (IDB) selectivity from antiproliferative WST-1 IC50 values; assay type: cell-based, human
Excerpt: We subsequently evaluated the IC50 of the Hsp90 inhibitors in both cell types (Figure S4) and calculated selectivity as IC50 in MDA-MB-231 cells with low lysosomal pH divided by IC50 in MDA-MB-231 cells with elevated lysosomal pH.
MDA-MB-231 cells with elevated lysosomal pH were generated by lentiviral vector-mediated knockdown of the V-ATPase V1E1 subunit (ATP6V1E1). The lentiviral transfer vector pPGK-Neo-ATP6V1E1 encoding the target sequence 5′-[…]-3′ against the V-ATPase V1E1 subunit was obtained from Mission (Sigma, St. Louis, MO). […] After the cells adhered, 2.6 µg of vector DNA was combined with 26 µL of the lentiviral packaging mix and transfected into cells using Fugene-6 transfection reagent (Roche Diagnostics, Indianapolis, IN), according to the manufacturer's instructions. […] The virus-containing cell culture supernatants were harvested twice: once at 24 h and again at 48 h. Prior to use, the viral media was filtered through a 0.45-µm filter and added onto 70% confluent 75 cc flasks of MDA-MB-231 cells, in the presence of 8 µg/mL hexadimethrine bromide. The viruses were allowed to infect the cells for 16–18 h, after which the media containing viruses was replaced with fresh media for a further 24 h prior to analysis of knockdown of V1E1 expression. The knockdown efficiency was analyzed by Western blotting, performed as described previously. […] Anti-goat HRP-conjugated secondary antibody (Santa Cruz Biotechnology) was used at a 1∶5000 dilution, and anti-mouse HRP-conjugated secondary antibody was used at a 1∶1000 dilution.
Cell sensitivity to compounds was evaluated using the WST-1 (4-[3[(4-iodophenyl)-2-(4-nitrophenyl)-2H-5-tetrazolio]-1,3-benzene disulfonate) assay (BioAssay Systems, Hayward, CA), which was performed according to the manufacturer's instructions. Briefly, 4000 cells were seeded per well of a 96-well plate and allowed to adhere overnight. Cells were incubated in increasing concentrations (9 different concentrations ranging from 0.00001 µM to 1000 µM) of drug for a period of 72 h. At the end of the drug treatment period, 10 µL of WST-1 reagent was added per well, allowed to incubate at 37°C for 2 hours, and absorbance at 450 and 620 nm (reference) was measured using a Multiskan model MCC/340 microplate reader (ThermoElectron Corp, Hudson, NH). Cell viability as a percent of control (untreated) cells was plotted against drug concentration to generate cytotoxicity curves, which were fit to 3 or 4 parameter logistic Hill plots using SigmaPlot. IC50 values were determined from the curve fit.

[2] = parameters: method as in PMID 17163760; conditions: previously measured; cited from earlier work
[3] = pKa determination by 1H NMR pH titration; assay type: physicochemical
Experimental: The pKa values for analogs 1, 2, 3, 5 and 6 (see Figure 2 for chemical structures) were measured at 37°C using ^1H NMR. To determine the pKa using this method, the chemical shifts of protons alpha to the ionizable amine were plotted against pH, yielding sigmoidal curves (Figure S1) from which pKa was derived. […] Therefore, we report a previously measured pKa value for compound 4 that was procured using an alternative approach, and we report a calculated value for compound 7 (see Materials and Methods). […] Only the higher pKa value is reported in Figure 2 because the second is too low to theoretically contribute to ion trapping in lysosomes.
All NMR solvents and reagents were obtained from Cambridge Isotope Labs (Andover, MA), unless noted otherwise. Compounds were dissolved at a 2–3 mg/mL concentration in D2O. pD measurements in D2O were performed using a MiniLab model IQ125 pH electrode (Fisher Scientific, Pittsburg, PA). pD was adjusted using NaOD (40% in D2O) or DCl (20% in D2O). ^1H NMR spectra were recorded at 37°C using a Bruker 400 MHz NMR and analyzed using the Bruker Topspin software. […] (DSS) was used as the reference peak. pD was converted to pH using the following expression: pH = 0.936pD*+0.412 [45]. The change in chemical shift of protons alpha to the amine as a function of pH yielded sigmoidal plots that were fit to a 4-parameter logistic equation using SigmaPlot (Systat Software, San Jose, CA) from which pKa was determined. The calculated pKa for compound 7 was determined using the MarvinSketch version 5.3.8. pKa plugin (www.chemaxon.com).

[4] = cited from earlier work
[5] = 1H NMR in D2O, 37°C, n = 1, for compound 5 the higher pKa, read-out: pKa

Structure (SMILES): O=c1[nH]cc(F)c(=O)[nH]1 [5-fluorouracil]
- IDB selectivity (IC50 low lysosomal pH / IC50 elevated lysosomal pH MDA-MB-231) [1]: ~1
- IDB selectivity (IC50 low lysosomal pH / IC50 elevated lysosomal pH MDA-MB-231) ([1]; 72 h, WST-1, n = 3): one and did not show appreciable IDB selectivity

Structure (SMILES): CO[C@H]1/C=C\C=C(/C)C(=O)NC2=CC(=O)C(NCCN(C)C)=C(C[C@@H](C)C[C@H](OC)[C@H](O)[C@@H](C)/C=C(\C)[C@@H]1OC(N)=O)C2=O [17-DMAG]
- alpha value [2]: 0.01

- pKa [3, 5]: 5.8
Structure (SMILES): COC1C=CC=C(C)C(=O)NC2=CC(=O)C(NCCc3cccnc3)=C(CC(C)CC(OC)C(O)C(C)C=C(C)C1OC(N)=O)C2=O (centres unmarked) [Compound 1]

Structure (SMILES): COC1C=CC=C(C)C(=O)NC2=CC(=O)C(NCCN(C)C)=C(CC(C)CC(OC)C(O)C(C)C=C(C)C1OC(N)=O)C2=O (centres unmarked) [Compound 3]
- pKa [3]: 7.8

Structure (SMILES): COC1C=CC=C(C)C(=O)NC2=CC(=O)C(NCCN3CCNCC3)=C(CC(C)CC(OC)C(O)C(C)C=C(C)C1OC(N)=O)C2=O (centres unmarked) [Compound 5]
- pKa [3, 5]: 9.9
- pKa ([3]; 1H NMR, 37°C, too low to contribute to ion trapping, read-out: pKa (second, lower value)): 4.2

Structure (SMILES): COC1C=CC=C(C)C(=O)NC2=CC(=O)C(NCCC3CCNCC3)=C(CC(C)CC(OC)C(O)C(C)C=C(C)C1OC(N)=O)C2=O (centres unmarked) [Compound 6]
- pKa [3, 5]: 10.5

Structure (SMILES): COc1cccc2c1C(=O)c1c(O)c3c(c(O)c1C2=O)C[C@@](O)(C(C)=O)C[C@@H]3O[C@H]1C[C@H](N)[C@H](O)[C@H](C)O1 [daunorubicin]
- IDB selectivity (IC50 low lysosomal pH / IC50 elevated lysosomal pH MDA-MB-231) [1]: significant but different degrees of IDB selectivity; also recorded: significantly higher IDB selectivity than did mitoxantrone

Structure (SMILES): O=C1c2c(O)ccc(O)c2C(=O)c2c(NCCNCCO)ccc(NCCNCCO)c21 [mitoxantrone]
- pKa ([4]; in Figure 6): 6
- pKa ([4]; weakly basic): 8.1
- pKa ([4]; weakly basic, listed as Mitoxantrone): ~8
- IDB selectivity (IC50 low lysosomal pH / IC50 elevated lysosomal pH MDA-MB-231) ([1]; 72 h, WST-1, n = 3): significant but different degrees of IDB selectivity
- IDB selectivity (IC50 low lysosomal pH / IC50 elevated lysosomal pH MDA-MB-231) ([1]; 72 h, WST-1, n = 3, listed as Mitoxantrone): significant IDB selectivity

Reference: article PMC3492287, “Lysosomotropic Properties of Weakly Basic Anticancer Agents Promote Cancer Cell Selectivity In Vitro” (PLoS ONE, 2012)
